# According to patent publication US5962469A, “Cyclic nitrones” (Hoechst Marion Roussel Inc., priority 1997, dated 1999):
# Assays:
# Cerebellar Granule Cells [1] = assay: Protection of cerebellar granule cells against Fe2+-induced oxidation (TBARS); type: cell-based; conditions: Rattus norvegicus, 0.75 h, read-out: TBARS IC50
# Description: (§1) 3. Protection of cerebellar granule cells against oxidative damage
# (§2) The cyclic nitrones were tested for their ability to protect primary cultures of cerebellar granule cells against oxidative injury induced by treatment with Fe^2+. Cerebellar granule cell cultures were prepared from 8 day old rats as previously described. […] Briefly, 8-10 cerebella were removed and placed in a Krebs-Ringer bicarbonate medium supplemented with BSA and MgSO4. Cerebella were finely chopped and digested with a trypsin/Krebs-Ringer solution. Cells were then dispersed by trituration in Krebs-Ringer containing DNase, MgSO4 and trypsin inhibitor followed by plating at a density of 1×10^6 cells/well in poly-l-lysine coated plate in MEM/10% fetal bovine serum/KCl/glutamine/gentamicin. Media was replaced at 24 hours and cytosine arabinoside added. Experiments were conducted with cells 8-10 days in vitro.
# (§3) The nitrones were added in either Locke's solution or in 20% β-cyclodextrins and allowed to incorporate into the cells for 30 min. At this time 20 μl of a 5 mM stock solution of ferrous chloride was added for a final concentration of 100 μM. After 45 min the media was removed and added to 1.5 ml of TBA/TCA (2:1) with 25 μl of 2% BHT and TBARS determined as described above. The absorbance of the control cells (no iron) was subtracted from the iron treated cells and this value taken as the denominator to determine the concentration of nitrone required to inhibit oxidation by 50%.
# Cerebellar Granule Cells [2] = assay: Protection of cerebellar granule cells against Fe2+-induced damage (viability, MTT); type: cell-based; conditions: Rattus norvegicus, read-out: Viability IC50
# Description: as §1, §2, §3
# Fresh MEM media was added to the cells along with 100 μl of MTT. After 4 hrs, 1 ml of cold isopropanol/0.04 N HCl was added, the cells scraped, mixed well and transferred to 13×100 mm glass test tubes. The absorbance resulting from mitochondrial reduction of the MTT (570 nm minus 630 nm) was measured as an assessment of viability. The % cell death was determined by comparison to the absorbance of cells to which no iron was added.
# [3] = Inhibition of lipid peroxidation (soybean phosphatidylcholine liposomes); type: biochemical; conditions: Fe2+-initiated, 37° C., 15 min time point, TBARS, read-out: LIPID OX (IC50)
# Description: 1. Inhibition of lipid peroxidation
# For determination of the ability to inhibit lipid peroxidation, liposomes were prepared from soybean phosphatidylcholine by ethanol injection. An aliquot of phosphatidylcholine was dried in a small glass vial under N2. The lipid was resolubilized in ethanol at a volume of 10 ml per ml of liposomes. Typically, 8 ml volumes of liposomes were prepared per tube and then all preparations were combined to provide a homogenous mixture for the assay. The ethanol containing the lipid was taken up in a Hamilton syringe and injected into the appropriate volume of 50 mM NaCl/10 mM Tris, pH 7.0 at 37° C. with mixing to achieve a final lipid concentration of 0.563 mM.
# The liposomes were added to 25 ml beakers in a Dubnoff metabolic shaker at 37° C. To the liposomes were added the test compound (in ethanol or buffer), histidine-FeCl3 250:[…] final), FeCl2 ([…] final, prepared in N2 purged water) and sufficient buffer to achieve a final lipid concentration of 0.5 mM. Oxidations were initiated by the addition of Fe^2^+ and carried out under an air atmosphere with shaking. One ml aliquots were removed at 0,2,4,6,8,10,12 and 15 min and added to 2 ml of 0.67% thiobarbituric acid : 10% trichloroacetic acid (2:1) in 0.25 N HCl containing 0.05 ml of 2% BHT to terminate oxidation. Thomas, C. E., McLean, L. R., Parker, R. A., and Ohlweiler, D. F. (1992) Lipids 27, 543-550.
# The samples were heated at 100° C. for 20 min in 13 x 100 mm borosilicate glass tubes covered with marbles to prevent evaporation. After cooling, the tubes were centrifuged at 3,000 rpm for 10 min and the absorbance of the resultant supernatant read at 532 nm-580 nm. Quantitation of thiobarbituric acid reactive substances (TBARS) was determined by comparison to a standard curve of malondialdehyde equivalents generated by acid catalyzed hydrolysis of 1,1,3,3-tetraethoxypropane. The IC50 was determined using the 15 min time point with the computer program GraphPad INPLOT 4. This program uses a nonlinear regression with sigmoidal curve on a semilogarithmic scale.
# Solubility = type: physicochemical; conditions: for water solubility: noted during work-up
# [4] = Metabolites of A isolated from an in vivo experiment; conditions: relative to Metabolite 2
# Text: Indeed, from the onset, a primary goal has been to find a potent antioxidant which lacks this side effect observed with compound A. In this regard, the following observations were of special interest. […] In order to investigate this possibility, the major metabolite C and a minor, possibly secondary, metabolite (Metabolite 2) were isolated from an in vivo experiment, purified by HPLC, and assigned the structures shown below (FIG. 3). [drawing 16]
# [5] = OH radical trapping (inhibition of the bleaching of p-NDA, primary assay); type: biochemical; conditions: for IC50: IC50, Fenton chemistry (Fe2+/H2O2), pH 7.0
# Description: 2. Assessment as .OH Traps
# A. Inhibition of the bleaching of p-NDA
# Cyclic nitrones were evaluated for .OH trapping activity by a variety of tests. The primary assay was dependent upon the ability of the compounds to inhibit the .OH-dependent bleaching of p-NDA. Bors, W., Michel, C., and Saran, M. (1979) J. Biochem. 95, 621-627. The p-NDA was prepared at 1 mM in 50 mM NaCl, pH 7.0. The hydroxyl radical was generated using Fenton chemistry (Fe^2+ /H2 O2). FeCl2 is dissolved in N2 purged, double distilled […] to a final concentration of 2.5 mM. H2 O2 was prepared from a 30% stock solution (8.8 M) at 1.25 mM in the buffer. Test compounds were solubilized in buffer or ethanol at a concentration of 1 M or 5 M, depending upon solubility.
# Assay mixtures in glass cuvettes contained solutions of 0.02 ml of H2 O2, 0.02 ml of test compound, 0.10 ml of p-NDA and 50 mM NaCl, pH 7.0 to a final volume of 0.98 ml. The oxidation was initiated by the addition of 0.02 ml of Fe^2+ and the bleaching of p-NDA was monitored as the loss in absorbance at 440 nm for 100 sec. To generate concentration curves, serial dilutions of the test compounds were made such that a constant volume of 0.02 ml was added to the reaction mixture. Ethanol itself is an .OH trap, thus controls contained an equal volume of ethanol for any test compound requiring this vehicle. The IC50 values for the nitrones were determined by GraphPad InPlot 4 and represent the amount of spin trap required to inhibit the bleaching of p-NDA by 50%.
# [6] = ESR spectroscopy, gerbils; cited from earlier work
# [7] = test system: neuronal cell loss and neurologic deficits; conditions: stroke, gerbil model; cited from earlier work
# [8] = test system: endotoxin associated mortality; conditions: rats; cited from earlier work
# [9] = compared with PBN; cited from earlier work
# [10] = compared with PBN; cited from earlier work; remark: listed apart in the source
# Sedation in rats = type: in vivo
# [11] = Duration of in vivo activity of compound A; design: species or system rats; conditions: relative to the sedative effect
# ischemia-induced damage = conditions: vitamin E supplementation; cited from earlier work
# loss of cell viability = conditions: prior administration for vitamin E; cited from earlier work
# [12] = Fe2+-induced damage, 100 μM ferrous chloride, 45 min
# [13] = Fe2+-induced damage, MTT reduction
SMILES,IC50 (Cerebellar Granule Cells [1]; [12]) [µM],IC50 (Cerebellar Granule Cells [2]; [13]) [µM],IC50 [3] [µM],further results
"CC(=O)OC1c2ccccc2C=[N+]([O-])C1(C)C (centres unmarked) [Compound 76, 4-Acetoxy-3,3-dimethyl-3,4-dihydroisoquinoline, N-oxide]",839,864,,
"CC1(C)Cc2c(ccc3ccccc23)C=[N+]1[O-] [Compound 9, 2,2-Dimethyl-1,2-dihydrobenzo[f]isoquinoline N-oxide]",,,100,solubility (Solubility; reason for OH radical trapping not measured): low solubility
"CC1(C)C(O)c2ccccc2C=[N+]1[O-] (centres unmarked) [C, 3,3-Dimethyl-3,4-dihydroisoquinolin-4-ol, N-oxide]",1900,1550,,abundance of metabolite in vivo [4]: much more abundant in vivo than Metabolite 2; water solubility (Solubility): relatively high water solubility
"CC1(C)C(=O)c2ccccc2C=[N+]1[O-] [Compound 77, 3,3-Dimethyl-3H-isoquinolin-4-one, N-oxide]",830,385,,
"CC1(C)Cc2ccc3ccccc3c2C=[N+]1[O-] [Compound 10, 3,3-Dimethyl-3,4-dihydrobenzo[h]isoquinoline N-oxide]",,,69,
"Cc1cc2c(c(C)c1O)CC(C)(C)N=C2 [Compound 38, 3,3,5,7-Tetramethyl-3,4-dihydroisoquinolin-6-ol]",,,,water solubility (Solubility): high water solubility
"CC1(C)Cc2ccsc2C=[N+]1[O-] [Compound 13, 5,5-Dimethyl-4,5-dihydrothieno[2,3-c]pyridine N-oxide]",,,1720,IC50 [5]: 4340 µM
"CC(C)(C)[N+]([O-])=Cc1ccccc1 [PBN, alpha-phenyl-tert-butyl nitrone]",,,,IC50 (Cerebellar Granule Cells [1]): 2600 µM; IC50 (Cerebellar Granule Cells [2]): 2600 µM; trapping of lipid-derived radicals in cortical tissue [6]: trap lipid-derived radicals in cortical tissue; effect on neuronal cell loss and neurologic deficits [7]: can significantly ameliorate neuronal cell loss and neurologic deficits; reduction of endotoxin associated mortality [8]: reduce endotoxin associated mortality in rats
"O=C1c2ccccc2C=[N+]([O-])C12CCCC2 [G, 3H-isoquinolin-4-one-3-spirocyclopentane, N-oxide]",102,105,,
"Cc1cc2c(c(C)c1O)CC(C)(C)[N+]([O-])=C2 [Compound 15, 3,3,5,7-Tetramethyl-3,4-dihydroisoquinolin-6-ol N-oxide]",220,190,,
"CC1(C)Cc2sccc2C=[N+]1[O-] [Compound 48, 6,6-Dimethyl-6,7-dihydrothieno[3,2-c]pyridine N-oxide]",,,1590,IC50 [5]: 14400 µM
"[O-][N+]1=Cc2ccccc2C(O)C12CCCC2 (centres unmarked) [F, 3,4-dihydroisoquinolin-4-ol-3-spirocyclopentane, N-oxide]",771,817,,
"[O-][N+]1=Cc2ccccc2C(O)C12CCCCC2 (centres unmarked) [D, 3,4-dihydroisoquinolin-4-ol-3-spirocyclohexane, N-oxide]",520,588,,
"CC1(C)Cc2ccccc2C=[N+]1[O-] [A, 3,4-dihydro-3,3-dimethylisoquinoline N-oxide]",,,1670,inhibition of lipid oxidation relative to PBN [9]: more potent inhibitors of lipid oxidation; hydroxyl radical trapping relative to PBN [10]: better hydroxyl radical traps; sedation (Sedation in rats; high doses in rats): causes sedation when administered in high doses in rats; time course of sedative effect (Sedation in rats; rats): peaks and declines rapidly; IC50 [5]: 2830 µM; duration of in vivo activity [11]: persists for a considerably longer period of time
"CC1(C)Cc2ccoc2C=[N+]1[O-] [Compound 53, 5,5-Dimethyl-4,5-dihydrofuro[2,3-c]pyridine N-oxide]",,,1070,OH RADICAL TRAPPING (effect) ([5]; at 20 mM): no effect
"O=C1c2ccccc2C=[N+]([O-])C12CCCCC2 [E, 3H-isoquinolin-4-one-3-spirocyclohexane, N-oxide]",37,39,,
"[O-][N+]1=Cc2ccccc2CC12CCCCC2 [B, spiro [cyclohexane-1,3']3,4-dihydroisoquinoline N-oxide, reference compound]",,,,inhibition of lipid oxidation relative to PBN [9]: more potent inhibitors of lipid oxidation; hydroxyl radical trapping relative to PBN [10]: better hydroxyl radical traps
"Cc1c(C)c2c(c(C)c1O)CCC(C)(CCCC(C)CCCC(C)CCCC(C)C)O2 (stereo not drawn) [vitamin E, α-tocopherol]",,,,protective effect against ischemia-induced damage (ischemia-induced damage): some protective effect; protection against loss of cell viability (loss of cell viability): partial protection
